Where no end group is shown, it is not given here.
Columns and labels:
Assay type in all cases: cell-based
[1] = system: alveolar type II epithelial cells (T2 cells); experiment: Adhesion of T2 cells to immobilized cell adhesion peptide substrates and inhibition by the same free peptide; conditions: for Inhibition degree of cell adhesion, Free peptide: T2 cells on immobilized peptide, same free peptide coexistent at 0.25 mg/ml; for Competitive inhibition of cell adhesion by the same free cell adhesion peptide: immobilized by MMAC or MAST, free peptide 0.25 mg/ml
Description: All treatments are assumed to be aseptic treatments. First, in the case of cell adhesion proteins, 10 μg/ml of a hydrophobic binding-adsorptive polymer, such as MMAC and MAST, and in the case of peptides, 50 μg/ml of MMAC and MAST is dissolved in ethanol, the solution is filtered and poured by 50 μl each into a 96-well with no surface treatment for cell culture, leave it stand still for a while, and then MMAC etc., are removed and air-drying is conducted. Next, 10-20 μg/ml of cell adhesion protein or 0.25 mg/ml of peptide is dissolved in 0.1 M triethanolamine buffer, a solution of pH 8.8, and the mixture was poured by 50 μl each into a 96-well previously coated with MMAC etc. The solution is reacted overnight while humidifying in an incubator heated at 37° C. After the reaction finishes, the reaction liquid is absorbed, the remaining reaction solution is rinsed out with the medium, and the immobilized preparation of cell adhesion proteins or peptides is prepared. The preparation, as described in the following Examples, can be used for cell cultures as cell adhesion protein or peptide substrates.
T2 cells suspended in the serum-free DMEM medium at the concentration of 6×10^4 cells/100 μl were seeded in the well prepared according to the manner in Example 6, wherein cell adhesion peptides were immobilized, and cultured in a CO2 incubator at 37° C. for 24 hours. Then, in accordance with the manner in Example 7, the cells were fixed with methanol, stained, and the absorbance was measured. Just before seeding the cells, the free peptides, the same kind as the cell adhesion peptides used for immobilization, were also added to the cell suspension, and the absorbance was measured after the culture in the same manner as described above. As to the case wherein FN was applied as a standard material, the measurement was conducted as well.
FIGS. 4 and 5 show the results obtained with the use of wells prepared by using laminin α-chain G-peptides and FIB-1 peptide as cell adhesion peptides, and as a hydrophobic binding-adsorptive polymer, MMAC was used in FIG. 4, and MAST was used in FIG. 5.

[2] = system: alveolar type II epithelial cells (T2 cells); experiment: Inhibition of T2 cell adhesion to immobilized cell adhesion peptide substrates by heparin treatment; conditions: 24-hour culture; for Inhibition of cell adhesion to immobilized peptide by heparin treatment: 100 μg/ml heparin 2 hours
Description: 100 μg/ml of heparin solution was poured into a well prepared according to the method in Example 6, wherein the cell adhesion peptides were immobilized, and the incubation was conducted for 2 hours. The heparin solution was removed after heparin bound to the immobilized cell adhesion peptides, and T2 cell suspension was seeded on the well.
It is theoretically shown that after the cell adhesion peptides first bind to heparin and are covered with heparin, the cell adhesion receptors having heparin-like sugar chain (heparan sulfate) present on the cell surface, in other words, syndecan, a protein that belongs to heparan sulfate proteoglycan, cannot bind to the cell adhesion peptides by using the sugar chain part of the heparan sulfate, thereby the cell adhesion is inhibited.

[3] = system: alveolar type II epithelial cells (T2 cells); experiment: Binding strength (affinity) of immobilized LN peptides to T2 cells relative to immobilized FIB-1 (mixed immobilization, free FIB-1 competition); design: key to Binding strength to T2 cells, Comprehensive evaluation: AA: extremely strongly binding/adhering; A: strongly binding/adhering; B: intermediately binding/adhering (as the same degree as FIB-1 peptide); C: more weakly binding/adhering than FIB-1 peptide; conditions: for Binding strength to T2 cells, Comprehensive evaluation: classification relative to FIB-1 peptide; for Binding strength to T2 cells, Ratio to FIB-1: inverse of mixing ratio at transitional midpoint, MMAC-coated well
Description: Therefore, the amount of FIB-1 peptide was set at 0.25 mg/ml, and AG73 peptide was mixed therewith, while changing its concentration ratio, from 1/1.250 of FIB-1 in an amount which is 0.20 μg/ml, to ½ of FIB-1 in an amount which is 0.125 mg/ml, and the mixture was immobilized on a well wherein a hydrophobic binding-adsorptive polymer MMAC was coated. The amount of cell adhesion in the case where T2 cells were cultured under a serum-free condition for 1 day on the immobilized peptides is shown in FIG. 9, in comparison with the case where the culture was conducted on the immobilized FIB-1, which was set at 100%.
However, in a case that the ratio of FIB-1:AG73 increased to 1:0.02, because T2 cells already transited to be adherent through the immobilized AG73 peptide, free FIB-1 peptide could no longer inhibit the cell adhesion. […] Likewise, with regard to A3G72 and A4G82 peptides, because the mixing ratio at the transitional midpoint=0.1, their binding strength to T2 cells is 10 times as much as that of FIB-1.
The method used in FIGS. 8 and 9 is extremely effective as a convenient method by which a relative order can be measured concerning to the binding strength (affinity) of cell adhesion peptides and the strength of cell adhesion can be considered quantitatively.
In Table 1, the classification is shown based on the results of the affinity (bonding/adhesion strength) between FIB-1 peptide containing RGD amino acid sequence of FN molecule, a binding site to integrin, and T2 cells: laminin α-chain G-domain peptides are classified into class AA, extremely strong binding/adhesion; class A, strong adhesion; class B, adhesion as the same degree as FIB-1; and class C, binding weaker than the described above.

[4] = system: alveolar type II epithelial cells (T2 cells); experiment: Inhibition by free cell adhesion peptides of T2 cell adhesion to coated cell adhesion proteins FN, Col I, LN, VN; conditions: free peptide 0.25 mg/ml; serum-free, 1 day
Description: Commercially available FN, LN and VN, usually used as cell adhesion proteins at cell culture, were coated to wells at the concentrations of 5 μg/ml, 10 μg/ml and 10 μg/ml, respectively. In case of Col I (collagen type I), Col I at the concentration of 100 μg/ml, dissolved in 1 mM HCl, was poured into a well, left stand still for a while, and then the solution was removed and air-drying was conducted, and rinsed with the medium, before use. Next, 6×10^5 cells/ml of alveolar type II epithelial cells (T2 cells) suspended in the serum-free DMEM medium was seeded by 100 μl each on a 96-well to which the extracellular matrix was coated, and cultured in a CO2 incubator at 37° C. for 1 day. After the culture was finished, the cells were fixed with 100 μl of methanol for 5 minutes, and stained for 30 minutes with 50 μl of 0.4% crystal violet. Excessive staining was washed with water, then the number of cells adhered to FN, Col I, LN and VN, which had been coated to the wells, was counted based on the absorbance of cytoplasm (A595).
On the other hand, among amino acid sequences of various LN molecules, the sequences that induce cell adhesion are known to be present. […] Then, the number of cells was counted in accordance with the method described above.

[5] = system: alveolar type II epithelial cells (T2 cells); experiment: Inhibition of T2 cell adhesion by free peptide different from the immobilized peptide substrate; conditions: for Inhibition by free peptide of T2 cell adhesion to immobilized AG73: AG73 (etc.) immobilized; for Inhibition by free peptide of T2 cell adhesion to immobilized FIB-1: FIB-1 immobilized; for Inhibition by free peptide of T2 cell adhesion to immobilized AG81.2 and AG73T: AG81.2 and AG73T immobilized
Description: Results obtained by adding the free peptides different from the immobilized peptides when T2 cells were cultured on the immobilized peptide prepared according to the method in Example 7, were shown in FIG. 8.
When adding the free peptides that were the same as the immobilized peptides in the culture medium, the both (free and immobilized) peptides compete for syndecan of T2 cells and as a result, the cell adhesion is inhibited (see Example 7). So far, four types of syndecans are genetically known. Whether these syndecans are commonly owned or accommodated by each peptide, overlapping only by some degrees, otherwise mutually exclusive, was examined herein.

[6] = system: alveolar type II epithelial cells (T2 cells); experiment: Inhibition of T2 cell adhesion to immobilized pseudomatrix by treatment with polyclonal antibodies for the peptides
Description: Each pseudomatrix prepared in Example 13 to which cell adhesion peptide was bound (MBAC-peptide) was diluted in DMEM medium to the concentration of 1-10 μg/ml, poured into a 96-well by 100 μl each, and left still overnight in a CO2 incubator to be adsorbed and immobilized on the wells. Non-adsorbed MBAC-peptides were removed by rinsing well with DMEM medium. Next, 100 μl of antibodies diluted with serum-free DMEM to the concentration of 4-10 μg/ml was poured into a well, incubated for 2-4 hours to let the antibodies bind to the peptides. Normal IgG was used for control groups. Antibodies were removed after the treatment, T2 cells suspended at the concentration of 6×10^5 cells/ml were seeded by 100 μl each. After 1-day serum-free culture, T2 cells were fixed with 100 μl of methanol for 5 minutes, and stained with 50 μl of 0.4% crystal violet for 30 minutes. Excessive staining was washed with water, and the number of adhering cells was counted based on the absorbance of cytoplasm (A595).

Substance | Inhibition degree of cell adhesion, Free peptide [1] | Competitive inhibition of cell adhesion by the same free cell adhesion peptide [1] | Inhibition of cell adhesion to immobilized peptide by heparin treatment [2] | Binding strength to T2 cells, Comprehensive evaluation [3] | Inhibition degree of cell adhesion, Heparin ([2]; immobilized peptide treated with 100 μg/ml heparin 2 hours) | Binding strength to T2 cells, Ratio to FIB-1 ([3]; FIB-1 0.25 mg/ml) | Mixing ratio at the transitional midpoint ([3]; peptide:FIB-1 co-immobilized, FIB-1 0.25 mg/ml, loss of inhibition by free FIB-1) | Inhibition of adhesion of T2 cells to FN, Col I, LN and VN by free peptide [4] | Inhibition by free peptide of T2 cell adhesion to immobilized AG73 [5] | Inhibition by free peptide of T2 cell adhesion to immobilized FIB-1 [5] | Inhibition by free peptide of T2 cell adhesion to immobilized AG81.2 and AG73T [5] | Cell adhesion ability of immobilized pseudomatrix compared with coated FN ([6]; MBAC-peptide 1-10 μg/ml in DMEM) | Inhibition of cell adhesion by treatment with antibodies for the peptides ([6]; antibodies 4-10 μg/ml, 2-4 hours)
GEKSQFSIRLKT | No | without competitive inhibition | inhibition of adhesion | C | – | – | – | – | – | – | – | – | –
GPLPSYLQFVGI | – | – | – | B | No | <1 | about 1 | inhibited adhesion of T2 cells | inhibited the cell adhesion | could inhibit | – | – | –
KNRLTIELEVRT | No | without competitive inhibition | inhibition of adhesion | C | – | – | – | – | – | – | – | – | –
LQQRRSVLRTKI | No | without competitive inhibition | inhibition of adhesion | C | – | – | – | – | cannot inhibit it | could not inhibit | could not competitively inhibit their immobilized peptide, or even if they can, only slightly | – | –
MBAC-AG73T: pseudomatrix: MBAC polymer reacted with AG73T peptide (LQQRRSVLRTKI) | – | – | – | – | – | – | – | – | – | – | – | the same level of cell adhesion ability as in the case where FN was coated | specifically inhibited
RNRLHLSMLVRP | – | without competitive inhibition | inhibition of adhesion | C | – | – | – | – | – | – | – | – | –
TLQLQEGRLHFM | No | without competitive inhibition | inhibition of adhesion | C | – | – | – | – | – | – | – | – | –
VKTEYIKRKAFM | No | without competitive inhibition | inhibition of adhesion | C | – | <1 | – | – | cannot inhibit it | could not inhibit | could not competitively inhibit their immobilized peptide, or even if they can, only slightly | – | –

Source: patent US8304238B2, “Cell culture medium and immobilized preparation of cell adhesion protein or peptide” (Nat'l Institute for Environmental Studies, priority 2003, dated 2012)
